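96-well plates; 48 h exposure; 5 concentrations. Endpoints by linear interpolation between flanking doses. Not reached: highest tested concentration assigned. The concentration for 50% growth inhibition is given as GI50.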 Calls of active or inactive are those of the source. No stated cut-off is given here; in the data, active = GI50 up to about 1.1 µM and inactive = higher.
Experiments:
Assay in all cases: NCI anticancer screen, dose series, 48 h
DLD-1 = tested on: DLD-1
K562 = tested on: K562
UACC-257 = tested on: UACC-257
KM-20L2 = tested on: KM-20L2
EKVX = tested on: EKVX
HL-60 = tested on: HL-60
NCI/ADR-RES = tested on: NCI/ADR-RES
SK-MEL-28 = tested on: SK-MEL-28
SK-OV-3 = tested on: SK-OV-3
OVCAR-5 = tested on: OVCAR-5
A549 = tested on: A549
MOLT-4 = tested on: MOLT-4
SK-MEL-2 = tested on: SK-MEL-2
CCRF-CEM = tested on: CCRF-CEM
SNB-75 = tested on: SNB-75
UO-31 = tested on: UO-31
LOX IMVI = tested on: LOX IMVI
HCC 2998 = tested on: HCC 2998
RPMI-8226 = tested on: RPMI-8226
SN12C = tested on: SN12C
KM12 = tested on: KM12
SNB-78 = tested on: SNB-78
COLO 205 = tested on: COLO 205
SF-295 = tested on: SF-295
SK-MEL-5 = tested on: SK-MEL-5
IGROV-1 = tested on: IGROV-1
A498 = tested on: A498
NCI-H226 = tested on: NCI-H226
MCF7 = tested on: MCF7
U-251 = tested on: U-251
HCT-116 = tested on: HCT-116
OVCAR-4 = tested on: OVCAR-4
UACC-62 = tested on: UACC-62
SF-268 = tested on: SF-268
XF498 = tested on: XF498
HOP-18 = tested on: HOP-18
HOP-62 = tested on: HOP-62
M19-MEL = tested on: M19-MEL
HCT-15 = tested on: HCT-15
NCI-H23 = tested on: NCI-H23
NCI-H522 = tested on: NCI-H522
NCI-H460 = tested on: NCI-H460
Malme-3M = tested on: Malme-3M
SNB-19 = tested on: SNB-19
RXF 393 = tested on: RXF 393
SW-620 = tested on: SW-620
HOP-92 = tested on: HOP-92
HT-29 = tested on: HT-29
DMS-114 = tested on: DMS-114
DMS-273 = tested on: DMS-273
OVCAR-3 = tested on: OVCAR-3
SF-539 = tested on: SF-539
OVCAR-8 = tested on: OVCAR-8
ACHN = tested on: ACHN
TK-10 = tested on: TK-10
M14 = tested on: M14
SR = tested on: SR
786-0 = tested on: 786-0
LXFL 529 = tested on: LXFL 529
CAKI-1 = tested on: CAKI-1

Measured: GI50

Nc1ccc2[nH]c3c(-c4ccccc4)nccc3c2c1
41.3 µM: HCT-15
inactive: DLD-1 64.7 µM | K562 24.4 µM | UACC-257 > 75.3 µM | KM-20L2 48.3 µM | EKVX > 100 µM | HL-60 12 µM | NCI/ADR-RES 24 µM | SK-MEL-28 > 100 µM | SK-OV-3 54.2 µM | OVCAR-5 > 88.3 µM | A549 48.9 µM | MOLT-4 4.46 µM | SK-MEL-2 > 100 µM | CCRF-CEM 14.1 µM | SNB-75 29.6 µM | UO-31 37.7 µM | LOX IMVI 28.9 µM | HCC 2998 28.8 µM | RPMI-8226 20.3 µM | SN12C > 87.7 µM | KM12 53.7 µM | SNB-78 > 55 µM | COLO 205 44 µM | SF-295 41.2 µM | SK-MEL-5 19.8 µM | IGROV-1 57.4 µM | A498 36.5 µM | NCI-H226 27.8 µM | MCF7 > 45.1 µM | U-251 75 µM | HCT-116 34.6 µM | OVCAR-4 23.7 µM | UACC-62 29.2 µM | SF-268 > 100 µM | XF498 61.2 µM | HOP-18 > 100 µM | HOP-62 > 84.5 µM | M19-MEL 64.6 µM | NCI-H23 > 73.6 µM | NCI-H522 59.2 µM | NCI-H460 11.3 µM | Malme-3M 76.4 µM | SNB-19 > 100 µM | RXF 393 38.2 µM | SW-620 65.8 µM | HOP-92 39.1 µM | HT-29 36.1 µM | DMS-114 37.6 µM | DMS-273 53.3 µM | OVCAR-3 56.9 µM | SF-539 71.6 µM | OVCAR-8 72.3 µM

Cc1cc(Cl)ccc1NC(=O)C(=O)C(C(=O)c1ccccc1)C1OC(=O)c2ccccc21 (stereo not given)
inactive: DLD-1 > 100 µM | K562 > 100 µM | UACC-257 > 100 µM | KM-20L2 > 100 µM | ACHN > 100 µM | EKVX > 100 µM | HL-60 > 100 µM | SK-MEL-28 > 100 µM | SK-OV-3 > 100 µM | OVCAR-5 > 100 µM | A549 > 100 µM | MOLT-4 > 100 µM | SK-MEL-2 > 100 µM | CCRF-CEM > 100 µM | SNB-75 > 100 µM | UO-31 > 100 µM | LOX IMVI > 100 µM | HCC 2998 > 100 µM | RPMI-8226 > 100 µM | SN12C > 100 µM | KM12 > 100 µM | SNB-78 > 100 µM | COLO 205 > 100 µM | TK-10 > 100 µM | SF-295 > 100 µM | SK-MEL-5 > 100 µM | M14 > 100 µM | IGROV-1 > 100 µM | A498 > 100 µM | NCI-H226 > 100 µM | SR > 100 µM | U-251 > 100 µM | HCT-116 > 100 µM | OVCAR-4 > 100 µM | UACC-62 > 100 µM | SF-268 > 100 µM | XF498 > 100 µM | HOP-18 > 100 µM | HOP-62 > 100 µM | M19-MEL > 100 µM | NCI-H23 > 100 µM | NCI-H522 > 100 µM | NCI-H460 > 100 µM | Malme-3M > 100 µM | SNB-19 > 100 µM | 786-0 > 100 µM | RXF 393 > 100 µM | LXFL 529 > 100 µM | SW-620 > 100 µM | CAKI-1 > 100 µM | HOP-92 > 100 µM | HT-29 > 100 µM | DMS-114 > 100 µM | DMS-273 > 100 µM | SF-539 > 100 µM | OVCAR-8 > 100 µM
> 100 µM: HCT-15
